Reference: the NIST ThermoML archive (doi:10.1016/j.fluid.2012.09.026)
Several values for one entry are separate records, joined by “and”; a condition that tells them apart may be missing. Equal values may be shown once. Numbers after ± are expanded uncertainties.

Conditions: for vapor or sublimation pressure: Closed cell (Static) method

CCCCO [butan-1-ol]
Liquid
Conditions | vapor or sublimation pressure
496.62 K | 1529 ± 3 kPa
497.54 K | 1549 ± 4 kPa
497.6 K | 1555 ± 3 kPa
497.65 K | 1555 ± 3 kPa
497.7 K | 1559 ± 3 kPa
497.97 K | 1559 ± 4 kPa
506.74 K | 1834 ± 4 kPa
506.84 K | 1834 ± 4 kPa
507.01 K | 1854 ± 4 kPa and 1844 ± 4 kPa
507.23 K | 1844 ± 4 kPa
507.25 K | 1844 ± 4 kPa
507.3 K | 1854 ± 5 kPa
518.64 K | 2241 ± 4 kPa
518.91 K | 2246 ± 4 kPa
518.99 K | 2248 ± 4 kPa
519.06 K | 2248 ± 4 kPa
519.2 K | 2252 ± 4 kPa
528.31 K | 2622 ± 5 kPa
531.38 K | 2776 ± 5 kPa
532.65 K | 2804 ± 5 kPa
533.03 K | 2834 ± 6 kPa
533.2 K | 2834 ± 5 kPa
533.4 K | 2838 ± 5 kPa
537.47 K | 3029 ± 6 kPa
539.69 K | 3127 ± 6 kPa
541.16 K | 3205 ± 6 kPa
541.95 K | 3245 ± 6 kPa
542.81 K | 3295 ± 6 kPa
543.19 K | 3293 ± 6 kPa
543.3 K | 3315 ± 9 kPa
543.89 K | 3315 ± 8 kPa
546.79 K | 3456 ± 7 kPa
548.49 K | 3579 ± 7 kPa
550.45 K | 3647 ± 7 kPa
555.53 K | 3983 ± 11 kPa
555.6 K | 3945 ± 10 kPa
555.7 K | 3941 ± 8 kPa
556.16 K | 3963 ± 8 kPa
557.65 K | 4075 ± 8 kPa
559.05 K | 4168 ± 8 kPa
559.33 K | 4181 ± 8 kPa

Conditions | mass density [kg/m3] | specific volume [m3/kg]
520 K, Gas, isochoric method | – | 0.01653 ± 4.1e-05
520 K, Liquid, isochoric method | – | 0.001879 ± 5e-06
530 K, Gas, isochoric method | – | 0.01351 ± 3.4e-05
530 K, Liquid, isochoric method | – | 0.001974 ± 5e-06
533.45 K, Gas, isochoric method | – | 0.01243 ± 3.1e-05
533.45 K, Liquid, isochoric method | – | 0.002001 ± 5e-06
540 K, Gas, isochoric method | – | 0.01078 ± 2.7e-05
540 K, Liquid, isochoric method | – | 0.002103 ± 5e-06
540.57 K, Liquid, Isochoric Breaking Point | 470 ± 1.1 | –
547.36 K, Gas, Isochoric Breaking Point | 113.76 ± 0.31 | –
550 K, Gas, isochoric method | – | 0.008333 ± 2.2e-05
550 K, Liquid, isochoric method | – | 0.002288 ± 6e-06
558.65 K, Gas, Isochoric Breaking Point | 167.7 ± 0.44 | –
560 K, Gas, isochoric method | – | 0.005682 ± 1.8e-05
560 K, Liquid, isochoric method | – | 0.002717 ± 7e-06
561 K, Gas, isochoric method | – | 0.005319 ± 1.8e-05
561 K, Liquid, isochoric method | – | 0.002792 ± 8e-06
561.08 K, Liquid, Isochoric Breaking Point | 345.9 ± 1.4 | –
561.85 K, Gas, Isochoric Breaking Point | 203.9 ± 0.6 | –
562 K, Gas, isochoric method | – | 0.004879 ± 1.6e-05
562 K, Liquid, isochoric method | – | 0.002985 ± 9e-06
563 K, Gas, isochoric method | – | 0.0046 ± 1.4e-05
563 K, Liquid, isochoric method | – | 0.003108 ± 8e-06

isochoric method
Conditions | mass density [kg/m3]
528.31 K, 2642 kPa, Gas | 113.76 ± 1.1
531.38 K, 2775 kPa, Gas | 167.7 ± 2.1
533.03 K, 2834 kPa, Gas | 203.9 ± 1.8
539.69 K, 3127 kPa, Gas | 113.76 ± 6.1
543.3 K, 3315 kPa, Gas | 113.76 ± 6.4
543.89 K, 3315 kPa, Gas | 167.7 ± 5.6
546.79 K, 3456 kPa, Gas | 113.76 ± 4.7
548.15 K, 3531 kPa, Gas | 113.76 ± 8
548.49 K, 3579 kPa, Gas | 203.9 ± 8.2
550.05 K, 4256 kPa, Liquid | 470 ± 1.3
550.45 K, 3647 kPa, Gas | 167.7 ± 3.1
551.66 K, 3610 kPa, Gas | 113.76 ± 2.8
555.53 K, 3893 kPa, Gas | 167.7 ± 2.9
555.7 K, 3941 kPa, Gas | 203.9 ± 3.3
557.65 K, 4020 kPa, Gas | 167.7 ± 1
558.64 K, 3788 kPa, Gas | 113.76 ± 0.83
559.33 K, 4118 kPa, Gas | 203.9 ± 1.3
561.09 K, 6138 kPa, Liquid | 470 ± 1.3
562.14 K, 4275 kPa, Gas | 167.7 ± 2.4
